Results taken from patent US12662479B2 (Foghorn Therapeutics Inc., priority 2020, dated 2026).

Experiments:
HiBit-BRM fusion protein = target: T1, HiBit-BRM fusion protein (Homo sapiens, UniProt P51531); assay: HiBiT-BRM cell-based degradation assay (Nano-Glo HiBiT Lytic Detection, 24 h); conditions: HeLa cells expressing HiBiT-BRM; for DC50: read-out: BRM HiBit Degradation IC50; for BRM HiBit Degradation Maximum measured: top dose 30 μM
T1 construct: expressed in transfected cells
In short: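 HeLa cells stably expressing HiBiT-BRM were treated for 24 h with compounds (10-point 3-fold dilutions, 30 μM final top dose, in duplicate). HiBiT was detected by lytic LgBiT complementation luminescence. % degradation was normalized to DMSO (high control) and 2 μM of a reference BRM/BRG1 degrader (low control).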

[1] = target: T2, HiBit-BRG1 fusion protein (Homo sapiens, UniProt P51532); assay: HiBiT-BRG1 cell-based degradation assay (Nano-Glo HiBiT Lytic Detection, 24 h); conditions: HeLa cells expressing HiBit-BRG1 and LgBit; for DC50: read-out: BRG1 HiBit Degradation IC50; for Dmax: HeLa, top dose 30 μM, read-out: BRG1 HiBit Degradation Maximum measured
T2 construct: expressed in transfected cells
In short: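 Stable HeLa line expressing HiBiT-BRG1 and LgBiT, seeded at 5000 cells/well; luminescence read after lytic Nano-Glo HiBiT reagent and 10 min shaking at RT. % degradation normalised between DMSO (high control) and 2 μM reference BRM/BRG1 degrader (low control).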

T2 sequence (P51532 whole entry, the tested form may be a part): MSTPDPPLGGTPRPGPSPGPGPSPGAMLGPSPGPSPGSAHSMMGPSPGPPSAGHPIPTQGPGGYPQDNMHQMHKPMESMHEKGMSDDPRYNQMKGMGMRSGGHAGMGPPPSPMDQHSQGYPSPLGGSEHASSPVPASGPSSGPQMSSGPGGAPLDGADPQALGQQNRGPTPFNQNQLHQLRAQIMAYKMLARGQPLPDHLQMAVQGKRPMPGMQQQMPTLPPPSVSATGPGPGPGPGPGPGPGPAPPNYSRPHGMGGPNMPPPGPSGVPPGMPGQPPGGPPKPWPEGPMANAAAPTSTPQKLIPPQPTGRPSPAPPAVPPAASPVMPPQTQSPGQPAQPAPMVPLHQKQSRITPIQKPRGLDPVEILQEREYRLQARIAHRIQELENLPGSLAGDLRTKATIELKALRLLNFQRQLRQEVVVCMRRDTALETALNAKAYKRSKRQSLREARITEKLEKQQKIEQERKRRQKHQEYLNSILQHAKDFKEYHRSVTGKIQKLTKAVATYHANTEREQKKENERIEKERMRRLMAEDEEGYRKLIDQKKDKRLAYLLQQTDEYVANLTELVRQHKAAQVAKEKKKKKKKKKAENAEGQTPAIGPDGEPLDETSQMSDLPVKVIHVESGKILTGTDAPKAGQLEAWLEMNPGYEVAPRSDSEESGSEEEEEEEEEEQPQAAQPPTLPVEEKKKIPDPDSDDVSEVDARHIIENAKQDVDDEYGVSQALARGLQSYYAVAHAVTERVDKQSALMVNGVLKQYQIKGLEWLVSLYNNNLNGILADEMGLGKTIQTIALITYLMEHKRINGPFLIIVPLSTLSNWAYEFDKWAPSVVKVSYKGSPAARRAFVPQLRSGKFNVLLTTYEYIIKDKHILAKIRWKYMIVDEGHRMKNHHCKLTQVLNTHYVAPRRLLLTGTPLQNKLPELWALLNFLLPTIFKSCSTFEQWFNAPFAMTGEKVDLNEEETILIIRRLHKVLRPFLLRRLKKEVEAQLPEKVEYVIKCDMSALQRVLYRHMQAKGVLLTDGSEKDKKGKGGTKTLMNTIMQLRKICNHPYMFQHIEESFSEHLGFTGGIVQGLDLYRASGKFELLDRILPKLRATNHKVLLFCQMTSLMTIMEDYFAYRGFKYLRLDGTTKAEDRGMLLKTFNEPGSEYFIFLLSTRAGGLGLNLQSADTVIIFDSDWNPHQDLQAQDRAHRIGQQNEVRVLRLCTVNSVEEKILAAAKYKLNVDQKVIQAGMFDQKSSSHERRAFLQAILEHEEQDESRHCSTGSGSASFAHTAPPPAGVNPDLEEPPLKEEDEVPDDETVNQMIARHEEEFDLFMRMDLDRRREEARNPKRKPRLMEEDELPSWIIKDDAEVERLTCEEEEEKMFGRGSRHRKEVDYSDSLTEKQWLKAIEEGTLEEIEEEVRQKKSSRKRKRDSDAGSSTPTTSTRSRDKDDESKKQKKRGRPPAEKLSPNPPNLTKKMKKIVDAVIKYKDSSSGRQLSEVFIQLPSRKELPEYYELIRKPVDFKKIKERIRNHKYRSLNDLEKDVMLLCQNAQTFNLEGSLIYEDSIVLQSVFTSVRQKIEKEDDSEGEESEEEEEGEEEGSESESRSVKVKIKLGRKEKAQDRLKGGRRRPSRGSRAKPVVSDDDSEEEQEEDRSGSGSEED
T1 sequence (P51531 whole entry, the tested form may be a part): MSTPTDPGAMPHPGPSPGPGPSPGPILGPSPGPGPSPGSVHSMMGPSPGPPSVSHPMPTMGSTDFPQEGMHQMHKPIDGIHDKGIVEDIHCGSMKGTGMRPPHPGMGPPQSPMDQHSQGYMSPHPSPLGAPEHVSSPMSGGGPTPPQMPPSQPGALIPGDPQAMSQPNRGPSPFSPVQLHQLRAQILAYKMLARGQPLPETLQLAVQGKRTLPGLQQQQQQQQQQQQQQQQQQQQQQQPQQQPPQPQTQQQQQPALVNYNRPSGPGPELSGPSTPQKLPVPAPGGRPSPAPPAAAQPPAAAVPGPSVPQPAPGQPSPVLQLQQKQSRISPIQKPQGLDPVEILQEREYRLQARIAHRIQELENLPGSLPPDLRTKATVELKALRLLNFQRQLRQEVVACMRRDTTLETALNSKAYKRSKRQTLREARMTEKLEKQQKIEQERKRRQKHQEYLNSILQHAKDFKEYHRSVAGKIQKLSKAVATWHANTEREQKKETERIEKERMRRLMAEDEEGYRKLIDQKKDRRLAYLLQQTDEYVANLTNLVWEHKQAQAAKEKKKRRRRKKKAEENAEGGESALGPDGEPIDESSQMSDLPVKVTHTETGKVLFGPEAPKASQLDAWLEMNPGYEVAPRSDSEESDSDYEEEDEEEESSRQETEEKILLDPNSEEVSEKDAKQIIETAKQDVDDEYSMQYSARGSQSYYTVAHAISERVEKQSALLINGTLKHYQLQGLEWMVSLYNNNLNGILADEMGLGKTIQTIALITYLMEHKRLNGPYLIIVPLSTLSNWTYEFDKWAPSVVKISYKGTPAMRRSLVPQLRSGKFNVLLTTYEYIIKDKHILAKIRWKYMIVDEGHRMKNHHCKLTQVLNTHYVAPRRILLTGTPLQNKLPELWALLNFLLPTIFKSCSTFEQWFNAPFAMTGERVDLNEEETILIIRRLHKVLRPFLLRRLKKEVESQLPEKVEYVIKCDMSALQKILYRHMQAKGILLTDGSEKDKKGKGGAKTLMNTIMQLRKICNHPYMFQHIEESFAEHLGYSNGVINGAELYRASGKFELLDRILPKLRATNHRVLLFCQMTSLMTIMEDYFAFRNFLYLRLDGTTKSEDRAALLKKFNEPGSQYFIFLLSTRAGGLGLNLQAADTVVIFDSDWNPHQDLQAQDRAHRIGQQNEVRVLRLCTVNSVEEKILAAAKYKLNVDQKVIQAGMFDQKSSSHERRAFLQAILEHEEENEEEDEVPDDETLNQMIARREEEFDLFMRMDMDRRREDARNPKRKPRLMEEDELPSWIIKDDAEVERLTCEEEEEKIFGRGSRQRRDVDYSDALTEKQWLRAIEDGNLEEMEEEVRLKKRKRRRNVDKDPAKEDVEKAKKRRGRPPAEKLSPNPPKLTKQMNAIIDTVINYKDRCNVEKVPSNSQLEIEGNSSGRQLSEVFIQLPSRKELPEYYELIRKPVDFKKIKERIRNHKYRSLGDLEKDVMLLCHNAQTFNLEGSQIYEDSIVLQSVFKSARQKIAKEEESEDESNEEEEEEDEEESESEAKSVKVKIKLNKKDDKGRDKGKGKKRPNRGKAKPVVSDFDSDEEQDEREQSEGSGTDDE

Row | Structure (SMILES) | DC50 (HiBit-BRM fusion protein) [µM] | BRM HiBit Degradation Maximum measured (HiBit-BRM fusion protein) | DC50 [1] [µM] | Dmax [1] [%]
1 | Cc1ncsc1-c1ccc(CNC(=O)[C@@H]2C[C@@H](O)CN2C(=O)[C@@H](NC(=O)CCCCCNC(=O)c2ccc(COC[C@H](NC(=O)c3ccn(S(C)(=O)=O)c3)C(=O)Nc3nc(-c4ccccc4)cs3)cc2)C(C)(C)C)cc1 [Compound 232, (2S,4R)-4-hydroxy-1-[(2S)-2-[6-[(4-[[(2S)-2-[(1-methanesulfonylpyrrol-3-yl)formamido]-2-[(4-phenyl-1,3-thiazol-2-yl)carbamoyl]ethoxy]methyl]phenyl)formamido]hexanamido]-3,3-dimethylbutanoyl]-N-[[4-(4-methyl-1,3-thiazol-5-yl)phenyl]methyl]pyrrolidine-2-carboxamide] | > 10 | C (‘C’ = Maximum degradation <50%) | > 10 | < 50
2 | CS(=O)(=O)n1ccc(C(=O)N[C@@H](CCCCNC(=O)C2CCN(CCOc3ccc4c(c3)C(=O)N(C3CCC(=O)NC3=O)C4=O)CC2)C(=O)Nc2nc(-c3ccccc3)cs2)c1 (stereo partly drawn) [Compound 269] | > 10 | C (‘C’ = Maximum degradation <50%) | > 10 | < 50
3 | CN(CCNc1ccc2c(c1)C(=O)N(C1CCC(=O)NC1=O)C2=O)C(=O)C1(c2cc(-c3cccc(-c4csc(NC(=O)CNC(=O)c5ccn(S(C)(=O)=O)c5)n4)c3)ccn2)CC1 (stereo not drawn) [Compound 162, N-(2-[[2-(2,6-dioxopiperidin-3-yl)-1,3-dioxoisoindol-5-yl]amino]ethyl)-1-[4-[3-(2-[2-[(1-methanesulfonylpyrrol-3-yl)formamido]acetamido]-1,3-thiazol-4-yl)phenyl]pyridin-2-yl]-N-methylcyclopropane-1-carboxamide] | > 10 | C (‘C’ = Maximum degradation <50%) | > 10 | < 50
4 | CS(=O)(=O)n1ccc(C(=O)N[C@@H](COCc2ccc(C(=O)N3CCC4(CC3)CC(Oc3ccc5c(c3)C(=O)N(C3CCC(=O)NC3=O)C5=O)C4)cc2)C(=O)Nc2nc(-c3ccccc3)cs2)c1 (stereo partly drawn) [Compound 199, (2S)-3-[[4-(2-[[2-(2,6-dioxopiperidin-3-yl)-1,3-dioxoisoindol-5-yl]oxy]-7-azaspiro[3.5]nonane-7-carbonyl)phenyl]methoxy]-2-[(1-methanesulfonylpyrrol-3-yl)formamido]-N-(4-phenyl-1,3-thiazol-2-yl)propanamide] | > 10 | C (‘C’ = Maximum degradation <50%) | > 10 | < 50
5 | Cc1ncsc1-c1ccc(CNC(=O)[C@@H]2C[C@@H](O)CN2C(=O)[C@@H](NC(=O)COCC(=O)N2CCN(c3cc(-c4cccc(-c5csc(NC(=O)CNC(=O)c6ccn(S(C)(=O)=O)c6)n5)c4)ccn3)CC2)C(C)(C)C)cc1 [Compound 72, N-[2-[[4-[3-[2-[4-[2-[2-[[(1S)-1-[(2S,4R)-4-hydroxy-2-[[4-(4-methylthiazol-5-yl)phenyl]methylcarbamoyl]pyrrolidine-1-carbonyl]-2,2-dimethyl-propyl]amino]-2-oxo-ethoxy]acetyl]piperazin-1-yl]-4-pyridyl]phenyl]thiazol-2-yl]amino]-2-oxo-ethyl]-1-methylsulfonyl-pyrrole-3-carboxamide] | > 10 | C (‘C’ = Maximum degradation <50%) | > 10 | < 50
6 | Cc1ncsc1-c1ccc(CNC(=O)[C@@H]2C[C@@H](O)CN2C(=O)[C@@H](NC(=O)CCCCCC(=O)NCc2cccc(-c3cccc(-c4csc(NC(=O)CNC(=O)c5ccn(S(C)(=O)=O)c5)n4)c3)c2)C(C)(C)C)cc1 [Compound 62, N1-((S)-1-((2S,4R)-4-hydroxy-2-((4-(4-methylthiazol-5-yl)benzyl)carbamoyl)pyrrolidin-1-yl)-3,3-dimethyl-1-oxobutan-2-yl)-N7-((3′-(2-(2-(1-(methylsulfonyl)-1H-pyrrole-3-carboxamido)acetamido)thiazol-4-yl)-[1,1′-biphenyl]-3-yl)methyl)heptanediamide] | 0.1 to 1 | A (‘A’ = Maximum degradation >75%) | 0.1 to 1 | > 75
7 | CS(=O)(=O)n1ccc(C(=O)N[C@@H](CCOCCCC(=O)NCCCC#Cc2ccc3c(c2)C(=O)N(C2CCC(=O)NC2=O)C3=O)C(=O)Nc2nc(-c3ccccc3)cs2)c1 (stereo partly drawn) [Compound 271, (2S)-4-[3-([5-[2-(2,6-dioxopiperidin-3-yl)-1,3-dioxoisoindol-5-yl]pent-4-yn-1-yl]carbamoyl)propoxy]-2-[(1-methanesulfonylpyrrol-3-yl)formamido]-N-(4-phenyl-1,3-thiazol-2-yl)butanamide] | > 10 | C (‘C’ = Maximum degradation <50%) | > 10 | < 50
8 | CN(CCOCCOCCNc1cccc2c1C(=O)N(C1CCC(=O)NC1=O)C2=O)C(=O)CN(C)c1cc(-c2cccc(-c3csc(NC(=O)CNC(=O)c4ccn(S(C)(=O)=O)c4)n3)c2)ccn1 (stereo not drawn) [Compound 84] | > 10 | C (‘C’ = Maximum degradation <50%) | > 10 | < 50
9 | Cc1ncsc1-c1ccc(CNC(=O)[C@@H]2C[C@@H](O)CN2C(=O)[C@@H](NC(=O)C2CC2C(=O)NCc2cccc(-c3cccc(-c4csc(NC(=O)CNC(=O)c5ccn(S(C)(=O)=O)c5)n4)c3)c2)C(C)(C)C)cc1 (stereo partly drawn) [Compound 159, N1-[(2S)-1-[(2S,4R)-4-hydroxy-2-([[4-(4-methyl-1,3-thiazol-5-yl)phenyl]methyl]carbamoyl)pyrrolidin-1-yl]-3,3-dimethyl-1-oxobutan-2-yl]-N2-[[3-(2-[2-[(1-methanesulfonylpyrrol-3-yl)formamido]acetamido]-1,3-thiazol-4-yl)-[1,1-biphenyl]-3-yl]methyl]cyclopropane-1,2-dicarboxamide] | > 10 | C (‘C’ = Maximum degradation <50%) | > 10 | < 50
10 | CS(=O)(=O)n1ccc(C(=O)N[C@@H](COCc2ccc(C(=O)N3CCN(CCOc4ccc5c(c4)C(=O)N(C4CCC(=O)NC4=O)C5=O)CC3)cc2)C(=O)Nc2nc(-c3ccccc3)cs2)c1 (stereo partly drawn) [Compound 191, (2S)-3-([4-[4-(2-[[2-(2,6-dioxopiperidin-3-yl)-1,3-dioxoisoindol-5-yl]oxy]ethyl)piperazine-1-carbonyl]phenyl]methoxy)-2-[(1-methanesulfonylpyrrol-3-yl)formamido]-N-(4-phenyl-1,3-thiazol-2-yl)propanamide; formic acid] | > 10 | C (‘C’ = Maximum degradation <50%) | > 10 | < 50
11 | CN(CC(=O)NCCCCCNc1cccc2c1C(=O)N(C1CCC(=O)NC1=O)C2=O)c1cc(-c2cccc(-c3csc(NC(=O)CNC(=O)c4ccn(S(C)(=O)=O)c4)n3)c2)ccn1 (stereo not drawn) [Compound 16, N-(2-((4-(3-(2-((2-((5-((2-(2,6-dioxopiperidin-3-yl)-1,3-dioxoisoindolin-4-yl)amino)pentyl)amino)-2-oxoethyl)(methyl)amino)pyridin-4-yl)phenyl)thiazol-2-yl)amino)-2-oxoethyl)-1-(methylsulfonyl)-1H-pyrrole-3-carboxamide] | > 10 | C (‘C’ = Maximum degradation <50%) | > 10 | < 50
12 | CS(=O)(=O)n1ccc(C(=O)N[C@@H](CCOCCCC(=O)N2CC(Oc3ccc4c(c3)C(=O)N(C3CCC(=O)NC3=O)C4=O)C2)C(=O)Nc2nc(-c3ccccc3)cs2)c1 (stereo partly drawn) [Compound 256, (2S)-4-[4-(3-[[2-(2,6-dioxopiperidin-3-yl)-1,3-dioxoisoindol-5-yl]oxy]azetidin-1-yl)-4-oxobutoxy]-2-[(1-methanesulfonylpyrrol-3-yl)formamido]-N-(4-phenyl-1,3-thiazol-2-yl)butanamide] | > 10 | C (‘C’ = Maximum degradation <50%) | > 10 | < 50
13 | CS(=O)(=O)n1ccc(C(=O)NCC(=O)Nc2nc(-c3cccc(-c4ccnc(OCCNC(=O)CCOCCOCCNc5cccc6c5C(=O)N(C5CCC(=O)NC5=O)C6=O)c4)c3)cs2)c1 (stereo not drawn) [Compound 81, N-[2-[[4-[3-[2-[2-[3-[2-[2-[[2-(2,6-dioxo-3-piperidyl)-1,3-dioxoisoindolin-4-yl]amino]ethoxy]ethoxy]propanoylamino]ethoxy]-4-pyridyl]phenyl]thiazol-2-yl]amino]-2-oxo-ethyl]-1-methylsulfonyl-pyrrole-3-carboxamide] | > 10 | C (‘C’ = Maximum degradation <50%) | 0.1 to 1 | 50 to 75
14 | CS(=O)(=O)n1ccc(C(=O)NCC(=O)Nc2nc(C3CCCN(C(=O)CCCCOc4cccc5c4C(=O)N(C4CCC(=O)NC4=O)C5=O)C3)cs2)c1 (stereo not drawn) [Compound 147, N-{4-[1-(5-{[2-(2,6-dioxopiperidin-3-yl)-1,3-dioxo-2,3-dihydro-1H-isoindol-4-yl]oxy}pentanoyl)piperidin-3-yl]-1,3-thiazol-2-yl}-2-[(1-methanesulfonyl-1H-pyrrol-3-yl)formamido]acetamide] | > 10 | C (‘C’ = Maximum degradation <50%) | > 10 | < 50
15 | Cc1ncsc1-c1ccc(CNC(=O)[C@@H]2C[C@@H](O)CN2C(=O)[C@@H](NC(=O)CCCCCNC(=O)CN(C)c2cc(-c3cccc(-c4csc(NC(=O)CNC(=O)c5ccn(S(C)(=O)=O)c5)n4)c3)ccn2)C(C)(C)C)cc1 [Compound 87] | > 10 | C (‘C’ = Maximum degradation <50%) | > 10 | < 50
